From patent US8426453B2 (Astellas Pharma Inc., priority 2006, dated 2013)

What was measured:
[1] = test system: SD rats; assay: Gastric ulcer model (diclofenac-induced ulcer in gastric corpus); format: in vivo; conditions: 1 hour before diclofenac 40 mg/kg oral, measured 6 hours after diclofenac
Procedure: A test compound was suspended in a 0.5% methyl cellulose (MC) solution to prepare a chemical liquid having a concentration 5 ml/kg; and this was orally administered to SD rats (n=12 in each group). The test compound was controlled to be 10 mg/kg or 30 mg/kg. A control group was separately prepared, in which 5 ml/kg of the 0.5% MC solution was orally administered to the rats. After 1 hour, 40 mg/kg of NSAID, diclofenac (by Sigma) was orally administered to all rats of all groups, as a suspension in 0.5% MC solution (5 ml/kg). In 6 hours after the diclofenac administration, the length of the ulcer formed in the gastric corpus was measured using a stereomicroscope (by Nikon) and a micrometer (by Olympus), and the data of 12 cases were averaged. The antiulceration potency (%) of the test compound was computed according to the following formula: Antiulceration Potency (%): [1−(mean ulcer length of compound-administered group/mean ulcer length of 0.5% MC-administered group)]×100.

[2] = molecular target: T1, xanthine oxidase (derived from butter milk, by Sigma) (Bos taurus, UniProt P80457); assay: Xanthine oxidase inhibiting activity (pterin fluorescence assay); format: biochemical; conditions: xanthine oxidase 0.03 units/ml, pterin 5 μM, room temperature
T1 construct: xanthine oxidase (derived from butter milk, by Sigma); purchased Sigma; host or cells: butter milk (natural source)
T1 sequence (P80457 whole entry): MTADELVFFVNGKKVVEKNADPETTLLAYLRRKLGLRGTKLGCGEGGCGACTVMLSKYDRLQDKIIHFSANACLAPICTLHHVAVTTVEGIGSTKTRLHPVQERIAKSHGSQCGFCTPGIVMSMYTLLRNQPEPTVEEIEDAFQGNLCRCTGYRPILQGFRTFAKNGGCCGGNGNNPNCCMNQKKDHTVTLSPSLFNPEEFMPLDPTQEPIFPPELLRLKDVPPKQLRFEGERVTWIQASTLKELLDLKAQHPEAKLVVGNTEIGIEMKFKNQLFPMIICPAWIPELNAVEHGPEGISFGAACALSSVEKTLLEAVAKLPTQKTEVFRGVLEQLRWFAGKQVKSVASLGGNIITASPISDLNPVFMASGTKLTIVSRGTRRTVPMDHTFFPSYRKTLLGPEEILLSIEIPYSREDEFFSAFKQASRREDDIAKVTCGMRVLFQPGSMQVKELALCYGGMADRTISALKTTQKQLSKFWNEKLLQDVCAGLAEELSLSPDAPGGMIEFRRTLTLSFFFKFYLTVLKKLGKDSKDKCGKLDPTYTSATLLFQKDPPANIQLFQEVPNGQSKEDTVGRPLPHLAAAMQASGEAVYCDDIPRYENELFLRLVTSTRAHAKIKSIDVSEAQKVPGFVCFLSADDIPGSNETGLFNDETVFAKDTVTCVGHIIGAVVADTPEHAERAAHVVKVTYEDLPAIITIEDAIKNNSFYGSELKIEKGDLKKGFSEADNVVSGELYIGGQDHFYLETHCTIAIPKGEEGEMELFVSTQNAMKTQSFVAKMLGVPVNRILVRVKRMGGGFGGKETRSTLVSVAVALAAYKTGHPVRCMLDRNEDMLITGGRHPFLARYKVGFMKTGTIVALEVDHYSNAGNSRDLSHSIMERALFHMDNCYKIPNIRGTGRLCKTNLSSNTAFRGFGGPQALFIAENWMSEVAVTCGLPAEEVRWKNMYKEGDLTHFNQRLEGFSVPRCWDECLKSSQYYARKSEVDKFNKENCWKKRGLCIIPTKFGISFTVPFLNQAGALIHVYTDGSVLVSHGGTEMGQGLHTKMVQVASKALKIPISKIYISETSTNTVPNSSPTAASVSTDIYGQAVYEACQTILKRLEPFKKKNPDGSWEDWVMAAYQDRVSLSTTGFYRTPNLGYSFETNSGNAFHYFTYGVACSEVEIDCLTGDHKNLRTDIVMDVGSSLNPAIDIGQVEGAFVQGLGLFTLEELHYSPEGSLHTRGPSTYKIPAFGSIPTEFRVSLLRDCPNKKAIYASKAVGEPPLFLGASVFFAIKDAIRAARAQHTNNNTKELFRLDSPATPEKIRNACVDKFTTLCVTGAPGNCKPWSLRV
Procedure: A test compound was dissolved in DMSO (by Nacalai) to have a concentration of 10 mM, and then just before use, its concentration was adjusted to a desired one.
The xanthine oxidase inhibitory activity of the compound of the present invention was evaluated according to a partly modified method of a method described in a reference “Free Radic. Biol. Med. 6, 607-615, 1992”. Concretely, xanthine oxidase (derived from butter milk, by Sigma) was mixed with 50 mM phosphate buffer to be 0.03 units/ml, and applied to a 96-well plate in an amount of 50 μl/well. The test compound diluted to have a final concentration was added to the plate in an amount of 2 μl/well, and processed at room temperature for 20 minutes. Pterin (by Sigma) was added to it to have a final concentration of 5 μM in an amount of 50 μl/well, and reacted at room temperature for 10 minutes. Under a condition of excitation at 345 nm and emission at 390 nm (pterin is oxidized by xanthine oxidase to give isoxanthopterin, and under the condition it emits light), the sample was analyzed using a microplate reader sapphire (by Tacan).
The light emission by isoxanthopterin in the presence or absence of xanthine oxidase was defined as 0% inhibition and 100% inhibition, respectively, and the concentration (IC50) of the test compound for 50% inhibition was computed.

[3] = test system: SD rats; assay: Small intestine ulcer model (indomethacin-induced ulcer); format: in vivo; conditions: 10 mg/kg oral, 1 hour before and 9 hours after indomethacin 10 mg/kg oral, measured after 24 hours
Procedure: A test compound was suspended in a 0.5% methyl cellulose (MC) solution to prepare a chemical liquid having a concentration 5 ml/kg; and this was orally administered to SD rats (n=10 in each group). The test compound was controlled to be 10 mg/kg in every case. A control group was separately prepared, in which 5 ml/kg of the 0.5% MC solution was orally administered to the rats. After 1 hour, 10 mg/kg of NSAID, indomethacin (by Sigma) was orally administered to the rats, as a suspension in 0.5% MC solution (5 ml/kg). In 9 hours after the indomethacin administration, the test compound was again orally administered to every rat in the same amount as previously; and after 24 hours, the area of the ulcer formed in the small intestine was measured using a stereomicroscope (by Nikon) and a micrometer (by Olympus), and the data of 10 cases were averaged. The antiulceration potency (%) of the test compound was computed according to the following formula: Antiulceration Potency (%): [1−(mean ulcer area of compound-administered group/mean ulcer area of 0.5% MC-administered group)]×100.

Structure (SMILES)	IC50 [2]	other results
Cc1nc(-c2ccc(OCC(C)C)c(C#N)c2)sc1C(=O)O [Compound A, 2-(3-cyano-4-isobutyloxyphenyl)-4-methyl-1,3-thiazole-5-carboxylic acid]	–	Antiulceration potency (inhibitory potency), mean ulcer length in gastric corpus vs 0.5% MC group ([1]; 30 mg/kg oral): 36%
CC(C)(C)COc1ccc(-n2cc(C(=O)O)cn2)cc1C#N [Compound B, 1-(3-cyano-4-neopentyloxyphenyl)-1H-pyrazole-4-carboxylic acid]	–	Antiulceration potency (inhibitory potency), mean ulcer length in gastric corpus vs 0.5% MC group ([1]; 30 mg/kg oral): 43%
CC(C)COc1ccc(-c2cc(C(=O)O)ccn2)cc1C(F)(F)F [Example 30]	6.3 nM	–
CC(C)CSc1ccc(-c2cc(C(=O)O)ccn2)cc1C#N [Example 53]	2.5 nM	–
N#Cc1cc(-c2ccc(C(=O)O)s2)cc(F)c1OC1CCCC1 [Example 119]	1.5 nM	–
Oc1ncnc2[nH]ncc12 [allopurinol, reference compound]	–	Antiulceration potency (inhibitory potency), mean ulcer length in gastric corpus vs 0.5% MC group ([1]; 30 mg/kg oral): no inhibitory potency was confirmed; Antiulceration potency (inhibitory potency), mean ulcer area in small intestine vs 0.5% MC group [3]: no inhibitory potency was confirmed
N#Cc1cc(-c2cc(C(=O)[O-])ccn2)ccc1-c1ccccc1.[Na+] [compound 8]	–	Antiulceration potency (inhibitory potency), mean ulcer length in gastric corpus vs 0.5% MC group ([1]; 30 mg/kg oral): 72%; Antiulceration potency (inhibitory potency), mean ulcer area in small intestine vs 0.5% MC group [3]: 29%
N#Cc1cc(-c2cc(C(=O)O)ccn2)ccc1-c1ccc(F)cc1 [compound 133]	≤ 20 nM	–
COc1ccccc1-c1ccc(-c2cc(C(=O)O)ccn2)cc1C#N [compound 138]	≤ 20 nM	–
N#Cc1cc(-c2cc(C(=O)O)ccn2)ccc1-c1ccsc1 [compound 141]	≤ 20 nM	–
N#Cc1ccc(-c2ccc(-c3cc(C(=O)O)ccn3)cc2C#N)cc1 [compound 143]	≤ 20 nM	–
N#Cc1cc(-c2cc(C(=O)O)ccn2)ccc1-c1ccco1 [compound 145]	≤ 20 nM	–
CC(C)(C)c1ccc(-c2ccc(-c3cc(C(=O)O)ccn3)cc2C#N)cc1 [compound 153]	≤ 20 nM	–
N#Cc1cc(-c2cc(C(=O)O)ccn2)ccc1-c1ccc(Oc2ccccc2)cc1 [compound 166]	≤ 20 nM	–
N#Cc1cc(-c2cc(C(=O)O)ccn2)ccc1-c1ccc2c(c1)OCO2 [compound 169]	≤ 20 nM	–
N#Cc1cc(-c2cc(C(=O)O)ccn2)ccc1-n1ncc2ccccc21 [compound 179]	≤ 20 nM	–
Cc1nc(-c2ccc(-c3ccccc3)c(C#N)c2)sc1C(=O)O [compound 237]	≤ 20 nM	Antiulceration potency (inhibitory potency), mean ulcer length in gastric corpus vs 0.5% MC group ([1]; 10 mg/kg oral): 32%; Antiulceration potency (inhibitory potency), mean ulcer area in small intestine vs 0.5% MC group [3]: 59%
Cc1nc(-c2ccc(-c3ccc(OC(F)(F)F)cc3)c(C#N)c2)sc1C(=O)O [compound 240]	≤ 20 nM	–
Cc1cccc(-c2ccc(-c3nc(C)c(C(=O)O)s3)cc2C#N)c1 [compound 243]	≤ 20 nM	–
N#Cc1cc(-c2ncc(C(=O)O)s2)ccc1-c1ccccc1 [compound 250]	≤ 20 nM	Antiulceration potency (inhibitory potency), mean ulcer area in small intestine vs 0.5% MC group [3]: 73%
N#Cc1cc(-n2cc(C(=O)O)cn2)ccc1-c1ccccc1 [compound 251]	≤ 20 nM	Antiulceration potency (inhibitory potency), mean ulcer length in gastric corpus vs 0.5% MC group ([1]; 30 mg/kg oral): 43%; Antiulceration potency (inhibitory potency), mean ulcer area in small intestine vs 0.5% MC group [3]: 41%
Cc1ccc(-c2ccc(-n3cc(C(=O)O)cn3)cc2C#N)cc1 [compound 252]	≤ 20 nM	–
